Laboratory results published in patent US3965111A, “Triazolothienodiazepine compounds” (Yoshitomi Pharmaceutical Industries, Ltd., priority 1971, dated 1976).

Key:
Type in all cases: in vivo
[1] = Anti-pentylenetetrazole effect (prevention of death); conditions: Mus musculus, ip; mice, intraperitoneal, 15 min before pentylenetetrazole 150 mg/kg s.c.; dead mice counted at 3 hours; read-out: Antipentylenetetrazole Effect ED50
Protocol: Ii. anti-pentylenetetrazole Effect
Pentylenetetrazole (150 mg/kg) was administered subcutaneously to groups, each of 6 mice, 15 minutes after intraperitoneal administration of the test compound. The number of dead mice were counted 3 hours after the administration of pentylenetetrazole, and then the ED50, a dose required to reduce the number of dead mice to 50%, was determined graphically.

[2] = system: fighting episodes in mice; experiment: Suppression of fighting behavior (electric foot-shock induced fighting); conditions: Mus musculus; female mice, oral, 60 min before foot-shock for 3 min; dose to suppress 50% of fighting pairs
Protocol: I. suppression of Fighting Behavior
Fighting episodes were produced in mice by the method described by Tedeschi et al in Journal of Pharmacology and Experimental Therapeutics, Vol. 125, pp. 28 ff. (1959). Groups of 8 female mice (4 pairs) were given orally, the test compound 60 minutes prior to receiving electric foot-shock for 3 minutes with 530 volts of interrupted direct current, 1.3 milliamperes, 10 Hz. […] The control mice of 81 pairs had shown the fighting episodes of 8.7 times on the average under the same conditions. The ED50, a dose required to suppress 50% of fighting pairs was determined graphically.

[3] = Anti-megimide effect (prevention of tonic extensor convulsion); conditions: Mus musculus, ip; mice, intraperitoneal, 60 min before megimide 80 mg/kg s.c.; tonic extensor convulsion prevented for 3 hours in 50%; read-out: Antimegimide Effect ED50
Protocol: Iii. anti-megimide Effect
Megimide (80 mg/kg) was administered subcutaneously to groups, each of 6 mice, 60 minutes after intra-peritoneal administration of the test compound. The ED50, a dose required to prevent for 3 hours, the tonic extensor convulsion induced by the administration of megimide in 50% of the animals, was determined graphically.

| Compound | ED50 [1] [mg/kg] | ED50 [2] [mg/kg] | ED50 [3] [mg/kg] |
| --- | --- | --- | --- |
| Cc1cc2c(s1)-n1c(nn(C)c1=O)CN=C2c1ccccc1Cl [A, 2,8-Dimethyl-6-o-chlorophenyl-1,2-dihydro-4H-s-triazolo [3,4-c]-thieno[2,3-e][1,4]diazepin-1-one] | 0.9 | 4.8 | 1.3 |
| CCc1cc2c(s1)-n1c(n[nH]c1=O)CN=C2c1ccccc1Br [C, 6-o-Bromophenyl-8-ethyl-1,2-dihydro-4H-s-triazolo[3,4-c]-thieno[2,3-e]-[1,4]diazepin-1-one] | 2.6 | 2.7 | 7.2 |
| CCc1cc2c(s1)-n1c(nn(C)c1=O)CN=C2c1ccccc1Cl [B, 2-Methyl-6-o-chlorophenyl-8-ethyl-1,2-dihydro-4H-s-triazolo[3,4-c]-thieno[2,3-e][1,4]diazepin-1-one] | 1.4 | 0.8 | 5.7 |
